Reference: paper PMC6255377, “New 1-Aryl-3-Substituted Propanol Derivatives as Antimalarial Agents” (Molecules, 2009)
Where two headings read alike, the source gives them in different places.

Tests used:
[1] = tested on: P. falciparum 3D7 strain, chloroquine sensitive; experiment: In vitro antimalarial activity screening (SYBR Green I micromethod); type: cell-based; details: Plasmodium falciparum, read-out: P. falciparum 3D7 IC50
Description: The SYBR^©GreenI-based micromethod was followed for testing the antimalarial activity of the compounds. Erythrocytic stages of P. falciparum 3D7 strain, chloroquine sensitive, were maintained in RPMI 1640 culture medium supplemented with 0.5% Albumax II at 37 °C in an atmosphere with 5% CO2. […] Next, stock solutions of each compound were prepared in DMSO and diluted in RPMI medium in order to obtain concentrations from 10 to 0.01 µg/mL. […] All compounds and controls were placed in triplicate. The plate was incubated under the same conditions. After 48 h, the plate was removed from the incubator and frozen for at least 1 h at -70 °C and then thawed. Finally, 100 µL of SYBR^©GreenI in lysis buffer (0.2 µL/mL) was added per well and shaken for 5 minutes or until no precipitated erythrocytes were observed. The plate was left to stand in the dark for 1 h at room temperature. Fluorescence intensity (FI) for each well was measured. The background of the nonparasitized erythrocytes was subtracted from each well tested.

P. berghei ANKA strain = type: in vivo; details: for GIP of P. bergei (growth inhibition percentage): 10 mg/kg/day, positive control; for appearance / toxicity in treated mice: in vivo
Description: The in vivo antimalarial activity of the compounds was measured by the classical 4-day suppressive test. Briefly, on day 0, groups of five NMRI male mice, weighing 20 ± 2 g each, were inoculated with 2 × 10^7 red blood cells RBCs infected by erythrocytic stages of rodent malaria parasite P. berghei ANKA strain. Two hours later, each group of mice was treated intraperitoneally with a dose of 50 mg/kg of the selected compound, previously prepared in DMSO. Treatment was continued from day 1 to day 3, always at similar times. On day 4, Giemsa-stained thin blood smears from the tail of the mice were prepared and microscopically examined with 1,000× magnification. The mean of the parasitemia of each group was calculated in a total of 1,000 RBCs, and the growth inhibition percentage of parasite was estimated in relation to the control group, which received only the solvent of the products. % inhibition = [(Par control – Par comp)/(Par control)] × 100

Murine J774 macrophages = experiment: Nonspecific cytotoxicity test (MTT); type: cell-based; details: 10 µg/mL, 24 h exposure
Description: Murine J774 macrophages were maintained in RPMI 1640 medium supplemented with 10% FBS at 37 °C in a 5% CO2 atmosphere. First, in a flat bottom 96-well microplate, 100 µL of macrophage suspension in RPMI medium, containing 5 × 10^4 cells, were distributed per well. The cells were allowed to attach for 24 h at 37 °C. Next, the medium was replaced by different concentrations of the compounds in 200 µL of medium, or DMSO at the same concentration as growth control, and the cells were exposed to the compounds solutions for another 24 h. Each concentration was assayed three times. Afterwards, the medium was eliminated and 100 µL/well of 3-(4,5-dimethythiazol-2-yl)-2,5-diphenyltetrazolium bromide (MTT) solution, 0.4 mg/mL in PBS, was added and the plates were returned to incubator for 1 h. The suspension was removed and the toxic effect of the compounds was assessed by the reduction of MTT to formazan crystals (as a cell viability indicator); said crystals were solubilized by adding 100 µL of DMSO. Finally, the optical density (OD) was measured at 595 nm and the toxicity percentage was calculated as follows:% toxicity = [(O.D.control - O.D.comp)/(O.D.control)] × 100

[2] = tested on: ferriprotoporphyrin IX biomineralization; parameters: method as in PMID 12128052; details: read-out: IC50 in the FBIT test; cited from earlier work
[3] = 3D7, Table 1, 48 h incubation, mean of two experiments in triplicate

IC50 [1, 3] [nM]	Compound	appearance / toxicity in treated mice (P. berghei ANKA strain)	also measured
	CCN(CC)CCCC(C)Nc1ccnc2cc(Cl)ccc12 (centres unmarked) [Chloroq., Chloroquine, reference compound]		IC50 ([1]; 3D7, 48 h): 80 nM; GIP of P. bergei (growth inhibition percentage) (P. berghei ANKA strain; four-day treatment, NMRI male mice): 100% at 10 mg/kg; GIP of P. bergei (growth inhibition percentage) (P. berghei ANKA strain; four-day treatment, NMRI male mice, listed as chloroquine): GIP = Growth inhibition percentage of the rodent malaria parasite after a four-day treatment. 10 mg/kg/day of chloroquine, positive control, inhibited 100% the growth parasite. ^a Toxic = death of more than half of the animals in the tested group.
160	OC(CCN1CCN(c2cccc3ccccc23)CC1)c1csc2ccc(F)cc12 (centres unmarked) [Compound 12]	the appearance of the mice was good	
330	COc1ccccc1N1CCN(CCC(O)c2csc3ccc(F)cc23)CC1 (centres unmarked) [Compound 15]	looked unhealthy and showed clear evidence of weight loss	
380	Cc1ccc2cccc(N3CCN(CCC(O)c4csc5ccc(F)cc45)CC3)c2n1 (centres unmarked) [Compound 23]	looked unhealthy and showed clear evidence of weight loss	
	C=C[C@H]1C[N@@]2CC[C@H]1C[C@H]2[C@H](O)c1ccnc2ccc(OC)cc12 [quinine]		IC50 [2]: 324000 nM

Compound	IC50 [1, 3] [nM]	appearance / toxicity in treated mice (P. berghei ANKA strain)	also measured
O=[N+]([O-])c1ccc(N2CCC(NCCC(O)c3csc4ccccc34)CC2)c(C(F)(F)F)c1 (centres unmarked) [Compound 31, 1-(Benzo[b]thiophen-3-yl)-3-[1-(4-nitro-2-trifluoromethylphenyl)piperidin-4-ylamino]propan-1-ol]	190		cytotoxicity on murine macrophages J774 (Murine J774 macrophages): showed toxicity; GIP of P. bergei at 50 mg/kg/day (growth inhibition percentage) (P. berghei ANKA strain; 50 mg/kg/day intraperitoneally, four-day treatment, NMRI male mice): Toxic; appearance / toxicity in treated mice (P. berghei ANKA strain; male, NMRI, mouse, 4 days): cytotoxicity of compound 31 was confirmed in the in vivo test
